Test results taken from patent US20080317807A1, “STRONTIUM FORTIFIED CALCIUM NANO-AND MICROPARTICLE COMPOSITIONS AND METHODS OF MAKING AND USING THEREOF” (The University of Hong Kong, priority 2007, published 2008).

How the values were obtained:
[1] = test system: osteoporotic mice model induced by parathyroid hormone; settings: cited from earlier work
[2] = test system: fibroblast and pre-osteoblastic enriched cell populations; settings: cited from earlier work
rats = settings: cited from earlier work
mature osteoblast = settings: Strontium concentrations of 10^−3M or higher; cited from earlier work
[3] = test system: osteoblast differentiation; test: Osteoblast differentiation by ALP staining and ALP quantification; type: cell-based
From the text: It was also observed that the administration of strontium promoted osteoblast differentiation. This was confirmed via alkaline phosphatase (ALP) staining and ALP quantification.

SMILES	Bone resorption [1]	Increase of DNA synthesis [2]	Increase of alkaline phosphatase activities, female rats (rats; female rats) [%]	Increase of alkaline phosphatase activities, male rats (rats; male rats) [%]	Plasma IGF-1, males (rats; males, after 104 weeks of treatment)	Increase of collagen and non-collagenic protein synthesis (mature osteoblast) [%]	Matrix mineralization of osteoprogenitors [3]	Osteoblast differentiation (ALP staining and quantification) ([3]; particularly after 14 days)
N#Cc1c(N(CC(=O)[O-])CC(=O)[O-])sc(C(=O)[O-])c1CC(=O)[O-].[Sr+2].[Sr+2] [strontium ranelate]	inhibited bone resorption	three- to four						
[Sr+2] [strontium]			56	53	Significant increase	34	increased matrix mineralization	increased osteoblast differentiation
